Assay [1] relates to Jurkat cells undergoing apoptosis induced by anti-Fas Ab. Kind of assay: Selective binding to apoptotic Jurkat cells; flow-cytometric (FACS) analysis. The format is cell-based, human. Conditions: 20 minutes. Here is the method:
Cultured Jurkat cells (human adult T cell leukemia cells) were grown in suspension in RPMI medium (Beit-Haemek, Israel), supplemented with 10% of fetal calf serum (FCS), 4 mM of L-glutamine, 1 mM of sodium pyruvate, […] and antibiotics (100 units/ml penicillin; 100 μg/ml streptomycin and 12.5 units/ml of nystatin). Prior to induction of apoptosis, medium was replaced with HBS buffer (10 mM HEPES; 140 mM NaCl, 1 mM CaCl). Apoptosis was then triggered by treatment with anti-Fas Ab (0.1 μg/ml; 3 hrs). As a result, a marked percentage of the cells became apoptotic, and is regarded as newly formed early apoptotic cells. Non-treated cells served as control. Both control cells and apoptotic cells were then incubated for 20 minutes with 100 μM of NST705. […] The analysis shown in FIG. 1 describes the uptake of NST705 compound into the population of apoptotic cells in control and anti-fas treated cultures.
In the dot plot shown in FIG. 1A and FIG. 1B, the left lower quadrant represents the healthy, non-stained fraction of cells. The right lower quadrant represents the newly formed population of cells in the early stages of apoptosis. These cells still maintain membrane integrity and thus exclude PI. Cells binding both NST705 and PI, i.e., cells in the late stages of apoptosis are represented in the right upper quadrant.
(§1) Cultured Jurkat cells (human adult T cell leukemia cells) were grown in suspension in RPMI medium (Beit-Haemek, Israel), supplemented with 10% of fetal calf serum (FCS), 2 mM of L-glutamine, 1 mM of sodium pyruvate, […] and antibiotics (100 units/ml penicillin; 100 μg/ml streptomycin and 12.5 units/ml of nystatin). Prior to induction of apoptosis, medium was replaced with HBS buffer (10 mM HEPES; 140 mM NaCl, 1 mM CaCl). Apoptosis was then triggered by treatment with anti-Fas Ab (0.1 μg/ml; 3 hrs). As a result, a marked percentage of the cells became apoptotic. Non-treated cells served as control. Both control cells and apoptotic cells were then incubated for 20 minutes with 100 μM of NST703. Subsequently, cells were co-stained with propidium iodide (P). Binding of NST703 to the control and apoptotic cells was determined by flow cytometric (FACS) analysis using Becton-Dickinson cell sorter and CellQuest software (excitation was at 356 nm and emission was measured at 530 nm).
In the dot plot shown in FIG. 2A and 2B, the left lower quadrant represents the healthy, non-stained fraction of cells. The right lower quadrant represents the newly formed population of cells in the early stages of apoptosis. These cells still maintain membrane integrity and thus exclude PI. Cells binding both NST703 and PI, i.e., cells in the late stages of apoptosis are represented in the right upper quadrant.
as §1, with “penicilin;” for “penicillin;”, “DC.” for “NST703.”, “(PI).” for “(P).”, “DC” for “NST703”
FIG. 4A and FIG. 4B are each a representative FACS dot plot, showing that activation of apoptosis leads to a marked uptake of DC by cells in the early stages of apoptosis (FIG. 4B), as compared to control cells (FIG. 4A). […]

The subject of assay [2] is apoptotic cells in B16-F10 murine melanoma tumor. Kind of assay: Targeting in-vivo to apoptotic cells in tumor, murine melanoma; fluorescent microscopy. The arrangement: species or system mice. Conditions: 2 mg/mouse intravenously, 2 hours. On the procedure: Tumors, and especially aggressive malignancies such as melanoma are characterized, in addition to the abnormal tissue proliferation, also by marked apoptosis of tumor cells. The performance of DC in selective targeting of these apoptotic cells within the tumor was therefore examined Mice (c57/black; 8 weeks old male mice) were injected subcutaneously bilaterally, in the flank, with murine melanoma-derived B16-F10 cells (ATCC CRL-6475; 10^5 cells/mice in a volume of 100 μl). Prior to injection, the cell line was maintained in culture in Dulbecco's modified Eagle's medium (DMEM), supplemented with 4 mM of L-glutamine; 100 units/ml of penicillin; 100 μg/ml of streptomycin; 12.5 units/ml of nystatin and 10% of fetal calf serum (FCS). Tumors were allowed to grow for 14 days, by which they reached a diameter of 5-7 mm.
The DC compound (2 mg/mouse in NaPpi buffer, pH. 7.40) was injected intravenously. Two hours later, the mice were scarified and the tumors, as well as other organs were taken, and immediately frozen in liquid nitrogen. Frozen sections were then prepared from each of the organs. Uptake of DC by the tumors or other organs was assessed by fluorescent microscopy.
The performance of NST730 in selective targeting to apoptotic cells within a tumor examined as described in Example 7. Mice (c57/black; 8 weeks old male mice) were injected subcutaneously bilaterally, in the flank, with murine melanoma-derived B16-F10 cells (ATCC CRL-6475; 10^5 cells/mice in a volume of 100 μl). Tumors were allowed to grow for 14 days, by which they reached a diameter of 5-7 mm.
The NST730 compound (2 mg/mouse in NaPpi buffer, pH. 7.40) was injected intravenously. Two hours later, the mice were scarified and the tumors, as well as other organs were taken, and immediately frozen in liquid nitrogen. Frozen sections were then prepared from each of the organs. Uptake of NST730 by the tumors or by other organs was assessed by fluorescent microscopy.

The subject of a further assay is apoptotic HeLa S3 cells. Kind of assay: Selective binding to apoptotic HeLa cells in vitro; flow-cytometric analysis. It is filed as cell-based. Conditions: culture aged 96 hours; FACS. Here is the method:
HeLa S3 cells (ATCC CCL-2.2) were grown in Dulbecco's modified Eagle's medium (DMEM), supplemented with 2 mM of L-glutamine; 100 units/ml of penicillin; 100 μg/ml of streptomycin; 12.5 units/ml of nystatin and 10% of fetal calf serum (FCS). Cells were seeded at a density of 5×10^6 cells/plate, on a […] culture plates, in a volume of 10 ml, and were allowed to age by incubating the culture for 96 hours without exchange of the growth medium. As a result, a marked percentage of the cells became apoptotic. Cells were harvested using a cell scraper, separated to single cells by passage through a syringe with a 18 G needle, and re-suspended at a density of 10^6 cells/ml in PBS buffer at pH=7.4. […] The analysis shown in FIG. 10 describes the uptake of NST601 compound into the population of apoptotic cells.

The test system of assay [3] is chemotherapy-induced apoptotic cells of lymphoma tumors. Kind of assay: In-vivo targeting to chemotherapy-induced apoptotic cells of lymphoma tumors; fluorescent microscopy. To be noted: DBA/2 mice, Taxol 20 mg/Kg; 1.4 mg/mouse injected 24 h later, 2 hours. Here is the method:
Lymphoma tumors were induced in 8 weeks old male DBA/2 mice (Harlan laboratories, UK) by subcutaneous injection of lymphoma cells. The cells, from a chemically-induced LY-R clone were obtained from ATCC(CRL-1722), and maintained by subsequent passages in mice. For induction of tumors, 5×10^5 cells in a volume of 100 μl were injected into the thigh region in mice. […] Twenty-four hours later, NST705 was injected systemically at a dose of 1.4 mg/mouse. Two hours later, mice were sacrificed and tumors were frozen in liquid nitrogen. Cryosections were then prepared and serial slides were subjected to either hematoxylin & eosin (H&E) staining or fluorescent microscopy evaluation (excitation wavelength of 360 nm, emission at 530 nm), using an Olympus fluorescent microscope (model IX70).

Assay [4] has as its system neuronal cell death following MCA occlusion. Kind of assay: Detection of neuronal cell death following middle cerebral artery (MCA) occlusion. The format is in vivo. To be noted: Balb/C mice; 70 mg/kg intravenously 22 hours after MCA cauterization, 2 hours. Here is the method:
Cerebral ischemia was induced in Balb/C mice (10-12 weeks) by cauterization of the middle cerebral artery. Mice were anesthetized, and the temporal bone was exposed. Scraping off the bone up to a minimal hole allowed exposure of the artery subjecting it to cauterization. 22 hours later, NST732 (70 mg/kg) was injected intravenously. Two hours later (at 24 h from induction of the injury), mice were anesthetized and sacrificed, and brains were removed into liquid nitrogen for histopathological analysis of the frozen sections. Four μm thick sections were prepared for fluorescent microscopic analysis to follow the cells stained positively with NST732.
Cerebral ischemia was induced in Balb/C mice (10-12 weeks) by cauterization of the middle cerebral artery. Mice were anesthetized, and the temporal bone was exposed. Scraping off the bone up to a minimal hole allowed exposure of the artery subjecting it to cauterization, 22 hours later, NST730 (70 mg/kg) was injected intravenously. Two hours later (at 24 h from induction of the injury), mice were anesthetized and sacrificed, and brains were removed into liquid nitrogen for histopathological analysis of the frozen sections, as described in Example 11.

Assay [5] deals with murine lymphoma cells undergoing cell death induced by irradiation. Kind of assay: Detection of cell death induced by irradiation in vivo; murine lymphoma. To be noted: irradiated DBA mice (3 fractions of 6 Gray); 70 mg/kg intravenously, 2 hours. Here is the method: DBA mice (5-6 weeks old males, Jackson laboratories) were injected subcutaneous with 10^6 lyS cells in 50 μl saline and were examined daily for tumor formation. At days 8, 9 and 10 mice were placed in a Perspex box and irradiated with 6MV x-rays apparatus (Linac) in fractions of 6 Gray each. Each mouse received a dose of about 1.0 centiGray per monitor unit. At day 13 (72 hours following the last irradiation) mice were injected intravenously with NST 732 (70 mg/kg, dissolved in Tris base containing 25% cremophore RH410, pH=9). After 2 hours, tumors were excised, frozen in liquid nitrogen and submitted for histopathological assessment.

[6] abbreviates: apoptotic cells (anti-Fas Ab 0.1 μg/ml, 3 hrs), 100 μM compound.
Setting [7] is: non-treated control cells, 100 μM compound.

In the case of `CN(C)c1cccc2c(S(=O)(=O)O)cccc12` [DA, dansylic acid], the “percent of identified early apoptotic events within the population (cells binding compound, excluding PI)” value (“percent” below) is 77% in assay [1] (apoptotic cells (anti-Fas Ab 0.1 μg/ml, 3 hrs), 250 μM compound) and 4.2% in assay [1] (non-treated control cells, 250 μM compound).
Turning to `CN(C)c1cccc2c(S(=O)(=O)N[C@@H](CS)C(=O)O)cccc12` [DC, dansylcysteine], the “binding to normal, viable tissue” value in assay [2] (small intestine tissue of the same animal) was “lack of binding”. Besides, in assay [2], the “binding to tumor cells undergoing apoptosis” value is on record as “Extensive binding” and the “staining of viable tumor cells” value is listed as “remain unstained”. The “percent” value in assay [1] (setting [6]) worked out at 76%. In addition, in assay [1] (setting [7]), the “percent” value was 2.3%.
With `CCCCN(C)c1cccc2c(S(=O)(=O)O)cccc12` [NST601, 5-Butylmethylamino-naphtalene-1-sulfonic acid], in the assay with apoptotic HeLa S3 cells, the “binding to apoptotic cells” value is listed as “selective binding” and the “staining of cells that do not undergo a process of cell death” value is reported as “remained non-stained”.
`CCCCN(C)c1cccc2c(S(=O)(=O)NCC(=O)O)cccc12` [NST703, (5-Butylmethylamino-naphtalene-1-sulfonyl)-glycine]: the entries for the “percent” value in assay [1] (setting [6]) and in assay [1] (setting [7]) were 75.6% and 3.27%, respectively.
In the case of `CCCCN(CCCC)c1cccc2c(S(=O)(=O)N[C@@H](CC(=O)O)C(=O)O)cccc12` [NST705, (5-dibutylamino-naphthalene-1-sulfonyl)-L-aspartic acid], in assay [3], the “uptake by tumor cells undergoing cell death” value is reported as “marked uptake” and the “uptake by viable, non-apoptotic tumor cells” value is recorded as “not observed”. The “percent” value in assay [1] (setting [6]) is listed as 70.8%. Besides, in assay [1] (setting [7]), the “percent” value is reported as 3%.
Consider `CN(C)c1cccc2c(S(=O)(=O)NC(C)(CF)C(=O)O)cccc12` (stereo not drawn) [NST730], for which, in assay [2] (colon, kidney, spleen and heart), the “binding to other non-target tissues” value is “lack of significant binding”. In addition, the “binding to normal, viable tissue” value in assay [2] (muscle tissue of the same animal) was “lack of binding”. Moreover, in assay [2], the “binding to tumor cells undergoing apoptosis” value was “Extensive binding” and the “staining of viable tumor cells” value was “remain unstained”. In assay [4], the “binding to cells in the infarcted (damaged) area” value was “extensive binding” and the “binding to cells outside the infarcted area” value was “did not manifest significant binding”.
As to `CCC(CF)(NS(=O)(=O)c1cccc2c(N(C)C)cccc12)C(=O)O` (stereo not drawn) [NST732], in assay [4], the “binding to cells in the infarcted (damaged) area” value was “extensive binding” and the “binding to cells outside the infarcted area” value is given as “did not manifest significant binding”. Further, the “binding to tumor cells undergoing apoptosis” value in assay [5] is listed as “extensive binding”.

Source of the values: patent US7365223B2, “Method for selective targeting of apoptotic cells and small molecule ligands used thereof” (NST NeuroSurvival Technologies Ltd, priority 2003, dated 2008).
